# Assay results from US20200172473A1, “DUAL MODULATORS OF FARNESOID X RECEPTOR AND SOLUBLE EPOXIDE HYDROLASE” (JOHANN WOLFGANG GOETHE-UNIVERSITÄT FRANKFURT AM MAIN, priority 2017, published 2020).
# Where two headings read alike, the source gives them in different places.
# Assays:
# PPARγ target gene FATP = PPARγ target gene FATP mRNA quantification from mouse livers; format: in vivo; conditions: 10 mg/kg p.o., 8 h post dose; vehicle 101±1
# recombinant human sEH = biological target: T1, recombinant human sEH (Homo sapiens, UniProt P34913); test: fluorescence-based sEH activity assay with PHOME substrate; format: biochemical
# T1 sequence (P34913 1-555): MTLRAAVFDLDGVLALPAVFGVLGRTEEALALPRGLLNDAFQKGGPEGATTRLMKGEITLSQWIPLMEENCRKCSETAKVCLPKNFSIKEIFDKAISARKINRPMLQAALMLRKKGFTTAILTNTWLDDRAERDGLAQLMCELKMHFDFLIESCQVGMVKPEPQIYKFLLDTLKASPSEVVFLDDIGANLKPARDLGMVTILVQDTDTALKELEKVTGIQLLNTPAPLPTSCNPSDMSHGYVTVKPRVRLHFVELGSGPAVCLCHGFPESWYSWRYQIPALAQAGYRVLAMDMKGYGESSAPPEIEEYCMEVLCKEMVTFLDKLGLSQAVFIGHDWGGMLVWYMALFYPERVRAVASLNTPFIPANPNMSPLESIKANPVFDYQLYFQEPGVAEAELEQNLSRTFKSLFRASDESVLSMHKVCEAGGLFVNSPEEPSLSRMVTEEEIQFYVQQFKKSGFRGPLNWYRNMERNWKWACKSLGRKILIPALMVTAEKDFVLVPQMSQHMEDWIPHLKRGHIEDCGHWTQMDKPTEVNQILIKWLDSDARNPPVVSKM
# Text: This assay is based on a reporter construct containing a firefly luciferase under the control of the FXR response element from bile salt export protein (BSEP). FXR and its hetero dimer partner retinoid X receptor (RXR) as expression constructs under the control of a CMV promoter as well as a constitutively expressed renilla luciferase (SV40 promoter) for normalization and toxicity control were co-transfected. […] The sEH inhibitory potency of the test compounds was quantified in a fluorescence-based assay using recombinant enzyme and the fluorogenic sEH substrate PHOME^37 that is hydrolyzed to a fluorescent 6-methoxynaphtaldehyde by sEH.
# The sEH inhibitory potency of the compounds were determined in a fluorescence-based 96-well sEH activity assay using recombinant human enzyme^50,51. Non-fluorescent PHOME (3-phenylcyano-(6-methoxy-2-naphthalenyl)methyl ester 2-oxiraneacetic acid; Cayman Chemicals) which can be hydrolyzed by the sEH to fluorescent 6-methoxynaphthaldehyde served as substrate. Recombinant human sEH (in Bis-Tris buffer, pH 7, with 0.1 mg/mL BSA containing a final concentration of 0.01% Triton-X 100) was pre-incubated with test compounds (in DMSO, final DMSO concentration: 1%) for 30 min at room temperature. […] A blank control (no protein and no compound) as well as a positive control (no compound) were executed. All experiments were conducted in triplicate and repeated in at least three independent experiments. For IC50 calculation, dose-response curves of increasing compound concentrations were recorded.
# PPARδ = biological target: T2, PPARδ (Homo sapiens, UniProt Q03181); test: Gal4-hybrid reporter gene assay PPARδ in HEK293T cells; format: cell-based; conditions: 10 μM
# T2 construct: pFA-CMV-hPPARδ-LBD; expressed in transfected cells; host or cells: HEK293T
# T2 sequence (Q03181 211-439 limits assumed): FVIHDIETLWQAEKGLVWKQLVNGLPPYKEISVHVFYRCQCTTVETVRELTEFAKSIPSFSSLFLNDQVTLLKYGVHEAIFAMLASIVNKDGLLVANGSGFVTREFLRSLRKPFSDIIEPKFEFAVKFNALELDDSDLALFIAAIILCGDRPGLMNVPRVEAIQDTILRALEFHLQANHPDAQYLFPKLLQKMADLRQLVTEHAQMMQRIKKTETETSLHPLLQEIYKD
# Text: Hybrid reporter gene assays for PPARα/γ/δ, LXRα/β, RXRα/β/γ, RARα/β/γ, VDR and PXR Plasmids: The Gal4-fusion receptor plasmids pFA-CMV-hPPARα-LBD^52, pFA-CMV-hPPARγ-LBD^52, pFA-CMV-hPPARδ-LBD^52, pFA-CMV-hLXRα-LBD^32 and pFA-CMV-hLXRβ-LBD^32 have been reported previously. […] Frame and sequence of all fusion receptors were verified by sequencing. pFR-Luc (Stratagene) was used as reporter plasmid and pRL-SV40 (Promega) for normalization of transfection efficiency and cell growth.
# Assay procedure: HEK293T cells were grown in DMEM high glucose, supplemented with 10% FCS, sodium pyruvate (1 mM), penicillin (100 U/mL) and streptomycin (100 μg/mL) at 37° C. and 5% CO2. The day before transfection, HEK293T cells were seeded in 96-well plates (2.5·10^4 cells/well). Before transfection, medium was changed to Opti-MEM without supplements. Transient transfection was carried out using Lipofectamine LTX reagent (Invitrogen) according to the manufacturer's protocol with pFR-Luc (Stratagene), pRL-SV40 (Promega) and pFA-CMV-hRXRα-LBD. 5 h after transfection, medium was changed to Opti-MEM supplemented with penicillin (100 U/mL), streptomycin (100 μg/mL), now additionally containing 0.1% DMSO and the respective test compound or 0.1% DMSO alone as untreated control. […] Luminescence was measured with an Infinite M200 luminometer (Tecan Deutschland GmbH). […]
smiles,measurement,setting,value
"CC(C)(C)c1ccc(C(=O)NCc2ccc(NS(C)(=O)=O)cc2Cl)cc1 [compound 57, 4-(tert-Butyl)-N-(2-chloro-4-(methylsulfonamido)benzyl)benzamide]",FATP mRNA in mouse liver compared to vehicle set as 100%,PPARγ target gene FATP,not affected
same,IC50,recombinant human sEH; read-out: IC50 for sEH inhibition,4.1 ± 0.4 nM
same,IC50,"recombinant human sEH; recombinant human sEH, PHOME, read-out: sEH inhibition IC50",4.1 ± 0.4 nM
same,activity on PPARδ,PPARδ,inactive
